Measured values from patent US20160122821A1, “GENETIC MARKERS OF ANTIPSYCHOTIC RESPONSE” (SUREGENE, LLC, priority 2013, published 2016).

Experiments:
[1] = tested on: Caucasian patients with schizophrenia (CATIE); conditions: SNPs in NPAS3; Lavedan et al., 2009; cited from earlier work
[2] = tested on: Caucasian patients with schizophrenia (CATIE); test: Genetic association (linear regression, additive model) of SNP alleles with MMRM-modelled change in PANSS Total Score under antipsychotic treatment, CATIE trial; type: in vivo, human; conditions: rs1315115, located in an intron of NPAS3
Method: For the CATIE study, individual cases were diagnosed as having SZ based on DSM-III/IV criteria. Treatment response for all patients was assessed using the Positive and Negative Syndrome Scale (PANSS) (Kay et al., 1987; Kay et al., 1989; Leucht et al., 2005). […] To avoid possible bias in post hoc selection of a treatment response variable, the inventors used the mixed model repeated measures (MMRM) approach developed by van den Oord and coworkers (van den Oord et al., 2009). […] The design of the CATIE study, including details of consent for genetic analyses, has been described in detail by others (Lieberman et al., 2005; Stroup et al., 2003; Sullivan et al., 2008). Only retrospective genetic analyses, judged to be exempt from human studies requirements by an IRB, were conducted in the current study. Consented DNA samples were obtained from the Rutgers University Cell and DNA Repository in collaboration with […]. […] All of these patients self-reported as having exclusively European ancestry. […] Genotyping was performed on a fee for service basis according to Illumina's standard operating procedures. Raw intensity files were processed using Illumina® BeadStudio version 1.7.4 software. […] Only two of these had been previously genotyped in the CATIE sample. […] To allow comparison to previously published PGx findings for CATIE and to avoid possible bias in post-hoc selection of a treatment response variable, the inventors used the mixed model repeated measures (MMRM) approach developed by Van den Oord and coworkers (van den Oord et al., 2009; […] et al., 2011). Briefly, this method models random effects by introducing random slopes for treatment effects, allowing treatment effects to be different across subjects. The MMRM approach serves to increase the statistical power to detect genetic associations by increasing the precision in measuring change in PANSS Total Score (PANSS-T) by accounting for variance due to baseline PANSS-T, and treatment, as well as smoothing out the random fluctuations in PANSS-T between visits due to various uncontrolled variables. […] Bozeman, Mont.). Quantile-Quantile (QQ) plots were prepared using the R statistical package version 2.14.1. For comparison purposes, original CATIE-provided SNP genotypes in specific genes were evaluated using the same genetic analysis. Haplotype association integrating newly generated and original genotypes for specific regions was carried out in SVS using haplotype blocks predefined by Haploview software. […] For each of the SNPs listed the reference SNP (rs) number is provided, which provides the known sequence context for the given SNP (see, e.g., National Center for Biotechnology Information (NCBI) SNP database available on the world wide web at ncbi.nlm.nih.gov/snp).

SMILES	association of SNPs with response [1]	association of SNP with response [2]
COc1cc(C(C)=O)ccc1OCCCN1CCC(c2noc3cc(F)ccc23)CC1 [iloperidone]	association of SNPs in NPAS3 with response	–
Cc1nc2n(c(=O)c1CCN1CCC(c3noc4cc(F)ccc34)CC1)CCCC2 [Risperidone, risperidone]	–	associated with response
